Laboratory results from patent US5143906A, “Kedarcidin antitumor chromophore and pharmaceutical composition containing same” (Bristol-Myers Squibb Company, priority 1991, dated 1992).
In brackets after ≈: the same amount, converted by molar mass. Entries after “also recorded” stand apart in the source; their conditions may differ.

Key:
[1] = test system: human colon adenocarcinoma HCT116 drug sensitive line; assay: In vitro cytotoxicity assay (XTT), HCT116; type: cell-based
Description: (§1) The A2780/DDP cell line is reported to be resistant through enhanced DNA repair mechanisms and elevated GSH/GST levels. Cells were cultured in McCoy's media and 10% fetal bovine serum. When in log phase growth, 4×10^3 cells/well were plated into 96 well microtiter plates and incubated at 37° C. in […] /5% CO2 for 24 hours to allow cell attachment. Compounds were added to the top row of wells, serially diluted (4 fold dilutions) and incubated for an additional 72 hours. The number of viable cells in each well was then quantitated as previously described^2 by adding 0.05 mg/ml final concentration tetrazolium stain (XTT) in the presence of 0.005 mM final concentration phenazine methosulfate. After incubation at room temperature for 3 hours to allow color development, optical density values were measured using a Dynatech MR600 plate reader at […]. IC50 values (drug concentration inhibiting cell growth by 50%) were calculated using linear regression analysis of the optical density readings. Triplicate determinations on separate 96 well plates were done for each drug on each cell line tested.

[2] = test system: HCT116/VP35 drug resistant cell line; assay: In vitro cytotoxicity assay (XTT), HCT116/VP35; type: cell-based, human
Description: as §1

[3] = test system: human ovarian carcinoma A2780 drug sensitive cell line; assay: In vitro cytotoxicity assay (XTT), A2780; type: cell-based
Description: as §1

[4] = test system: A2780/DDP drug resistant cell line; assay: In vitro cytotoxicity assay (XTT), A2780/DDP; type: cell-based, human
Description: as §1

[5] = test system: several human tumor cell lines; assay: In vitro cytotoxicity assay, several human tumor cell lines (summary); type: cell-based
From the text: as §1, with “The cell lines used to evaluate in vitro cytotoxic potency include the human colon adenocarcinoma HCT116 drug sensitive line, HCT 116/VP35 and HCT116/VM46 daughter drug resistant cell lines that have low Topoisomerase II and elevated P-170 glycoprotein levels^1; respectively, and the human ovarian carcinoma A2780 drug sensitive and the A2780/DDP daughter drug resistant cell line. The A2780/DDP” for “The A2780/DDP”, “density readings. […]” for “density readings. Triplicate determinations on separate 96 well plates were done for each drug on each cell line tested.”

[6] = test system: iv implanted P388 leukemia; assay: Antitumor activity against iv implanted P388 leukemia; type: in vivo, murine (CDF1 mice)
From the text: (§2) The P388 tumor was maintained in ascitic form in DBA/2 mice. Experimental tumor models used CDF^1 mice implanted via the intraperitoneal or intravenous route with 1×10^6 leukemia cells on day 0 and dosed with drugs according to the indicated route and schedule. Mice were weighed on day 0 and on day 5 or 6. Weight loss of 20% or greater was an indicator of drug toxicity. Each dose group consisted of 6 mice with 10 mice in the untreated control group. The dosing schedule was Q1DX1;1. Death checks were performed daily and the median life span of each group determined. […] Experiments were terminated on or about day 30.

[7] = test system: sc implanted B16 melanoma; assay: Antitumor activity against sc implanted B16 melanoma; type: in vivo, murine (BDF1 mice); settings: for % T/C / Av. wgt. change / Med. surv. time / No. of mice alive on d 5: iv
Description: The B-16 murine melanoma was maintained as a subcutaneous growing tumor in C57BL/6 mice. Experimental tumor models used BDF^1 mice implanted with a 25 mg tumor fragment implanted subcutaneously via trochar on day 0. Kedarcidin chromophore was administered iv on a Q1DX1;1 schedule. Mice were weighed on day 0 and on day 9.

[8] = test system: P388 murine leukemia; assay: P388 murine leukemia models, ip and iv implanted (summary); type: in vivo, murine (CDF1 mice)
From the text: as §2

[9] = Stability in solution; type: physicochemical

SMILES: COc1c(OC(C)C)cc2cc(O)c(C(=O)N[C@@H]3CC(=O)OC[C@@H](O[C@H]4C[C@H](O)[C@H](N(C)C)[C@H](C)O4)/C4=C/C#C[C@@H]5O[C@]56C(=C[C@H](Oc5ccc3nc5Cl)[C@@H]6O[C@H]3C[C@@](C)(O)[C@@H](O)[C@H](C)O3)C#C4)cc2c1OC [Kedarcidin chromophore]
- IC50 ([1]; HCT116, 72 h, VP-16 values: mean of triplicate determinations from last 6 experiments): 0.4 ng/mL (≈ 0.388 nM)
- fold more potent than VP-16 ([1]; VP-16 sensitive cell line (HCT116)): 1725 fold
- cross-resistance with VP-16 ([2]; HCT116/VP35): not cross-resistant
- IC50 ([2]; HCT116/VP35, 72 h, VP-16 values: mean of triplicate determinations from last 6 experiments): 0.3 ng/mL (≈ 0.291 nM)
- IC50 ([3]; A2780, 72 h, VP-16 values: mean of triplicate determinations from last 6 experiments): 0.2 ng/mL (≈ 0.194 nM)
- fold more potent than VP-16 ([3]; VP-16 sensitive cell line (A2780)): 285 fold
- fold less potent on the resistant cell line compared to the sensitive cell line ([4]; A2780/DDP vs A2780, 4320 min): about 6.6 fold
- IC50 ([4]; A2780/DDP, 72 h, VP-16 values: mean of triplicate determinations from last 6 experiments): 1.3 ng/mL (≈ 1.26 nM)
- ability to inhibit cell growth ([5]; compared to VP-16): extremely potent
- antitumor in vitro activity ([5]; several human tumor cell lines): potent antitumor in vitro activity
- % T/C ([6]; Exp. 8305, 0.125 mg/kg/dose): 186%
- Av. wgt. change ([6]; Exp. 8305, 0.125 mg/kg/dose): -0.3 g
- Med. surv. time ([6]; Exp. 8305, 0.125 mg/kg/dose): 13.0
- No. of mice alive on d 5 ([6]; Exp. 8305, 0.125 mg/kg/dose): 6/6
- % T/C ([6]; Exp. 8305, 0.25 mg/kg/dose): 214%
- Av. wgt. change ([6]; Exp. 8305, 0.25 mg/kg/dose): -0.8 g
- Med. surv. time ([6]; Exp. 8305, 0.25 mg/kg/dose): 15.0
- No. of mice alive on d 5 ([6]; Exp. 8305, 0.25 mg/kg/dose): 6/6
- % T/C ([6]; Exp. 8305, 0.5 mg/kg/dose): 107%
- Av. wgt. change ([6]; Exp. 8305, 0.5 mg/kg/dose): -2.9 g
- Med. surv. time ([6]; Exp. 8305, 0.5 mg/kg/dose): 7.5
- No. of mice alive on d 5 ([6]; Exp. 8305, 0.5 mg/kg/dose): 6/6
- % T/C ([6]; Exp. 8305, 1 mg/kg/dose): TOX
- Med. surv. time ([6]; Exp. 8305, 1 mg/kg/dose): TOX
- No. of mice alive on d 5 ([6]; Exp. 8305, 1 mg/kg/dose): 0/6
- % T/C ([6]; Exp. 8305, 2 mg/kg/dose): TOX
- Med. surv. time ([6]; Exp. 8305, 2 mg/kg/dose): TOX
- No. of mice alive on d 5 ([6]; Exp. 8305, 2 mg/kg/dose): 0/6
- % T/C ([6]; Exp. 8305, 4 mg/kg/dose): TOX
- Med. surv. time ([6]; Exp. 8305, 4 mg/kg/dose): TOX
- No. of mice alive on d 5 ([6]; Exp. 8305, 4 mg/kg/dose): 0/6
- optimal dose ([6]; Exp. 8305, iv one day after tumor implant): 0.25 mg/kg/inj
- % T/C ([6]; Exp. 8328, 0.125 mg/kg/dose): 186%
- Av. wgt. change ([6]; Exp. 8328, 0.125 mg/kg/dose): -2.5 g
- Med. surv. time ([6]; Exp. 8328, 0.125 mg/kg/dose): 13.0
- No. of mice alive on d 5 ([6]; Exp. 8328, 0.125 mg/kg/dose): 6/6
- % T/C ([6]; Exp. 8328, 0.25 mg/kg/dose): 100%
- Av. wgt. change ([6]; Exp. 8328, 0.25 mg/kg/dose): -2.4 g
- Med. surv. time ([6]; Exp. 8328, 0.25 mg/kg/dose): 7.0
- No. of mice alive on d 5 ([6]; Exp. 8328, 0.25 mg/kg/dose): 6/6
- % T/C ([6]; Exp. 8328, 0.5 mg/kg/dose): TOX
- Med. surv. time ([6]; Exp. 8328, 0.5 mg/kg/dose): TOX
- No. of mice alive on d 5 ([6]; Exp. 8328, 0.5 mg/kg/dose): 0/6
- % T/C ([6]; Exp. 8328, 1.0 mg/kg/dose): TOX
- Med. surv. time ([6]; Exp. 8328, 1.0 mg/kg/dose): TOX
- No. of mice alive on d 5 ([6]; Exp. 8328, 1.0 mg/kg/dose): 0/6
- optimal dose ([6]; Exp. 8328, iv, Q1DX1;1): 0.125 mg/kg/inj
- activity by the lifespan criterion ([7]; Exp. 796): active by the lifespan criterion
- activity by the tumor growth delay criterion ([7]; Exp. 796): Neither kedarcidin chromophore or kedarcidin were active
- optimum dose ([7]; Exp. 796, iv one day after tumor implant): 0.062 mg/kg/inj
- % T/C ([7]; Exp. 796, 0.062 mg/kg/dose): 164%
- Av. wgt. change ([7]; Exp. 796, 0.062 mg/kg/dose): 1.1 g
- Med. surv. time ([7]; Exp. 796, 0.062 mg/kg/dose): 41.0
- No. of mice alive on d 5 ([7]; Exp. 796, 0.062 mg/kg/dose): 8/8
- % T/C ([7]; Exp. 796, 0.125 mg/kg/dose): 126%
- Av. wgt. change ([7]; Exp. 796, 0.125 mg/kg/dose): 1.1 g
- Med. surv. time ([7]; Exp. 796, 0.125 mg/kg/dose): 31.5
- No. of mice alive on d 5 ([7]; Exp. 796, 0.125 mg/kg/dose): 8/8
- % T/C ([7]; Exp. 796, 0.25 mg/kg/dose): TOX
- Av. wgt. change ([7]; Exp. 796, 0.25 mg/kg/dose): -1.0 g
- Med. surv. time ([7]; Exp. 796, 0.25 mg/kg/dose): TOX
- No. of mice alive on d 5 ([7]; Exp. 796, 0.25 mg/kg/dose): 2/8
- % T/C ([7]; Exp. 796, 0.5 mg/kg/dose): TOX
- Med. surv. time ([7]; Exp. 796, 0.5 mg/kg/dose): TOX
- No. of mice alive on d 5 ([7]; Exp. 796, 0.5 mg/kg/dose): 0/8
- activity and potency compared to kedarcidin ([7]; conclusion, compared directly): as active as, and slightly more potent than, kedarcidin
- antitumor activity by lifespan criterion ([7]; sc implanted B16, conclusion): significant antitumor activity; also recorded: in vivo antitumor activity
- efficacy and potency compared to kedarcidin ([8]; P388 model): as efficacious as, and slightly more potent than, kedarcidin; also recorded: as active as, and slightly more potent than, kedarcidin
- antitumor activity in P388 models ([8]; ip, ip or iv, iv model): both potent and efficacious; also recorded: significant antitumor activity; also recorded: in vivo antitumor activity
- Stability [9]: Very unstable
- Decomposition in solution ([9]; in solution with benzene, methanol, chloroform and DMSO): Decomposes within hours
